Measurements taken from patent US4521418A, “Guanidinothiazolyl derivatives” (Smith Kline & French Laboratories Limited, priority 1979, dated 1985).

Test system: histamine H2 -receptors
Test: inhibition of histamine-stimulated secretion of gastric acid from Heidenhain pouch dogs
Format: in vivo
Details: Heidenhain pouch dog, 0.25 micromol kg^-1 i.v.
Procedure: Heidenhain pouch dogs are prepared by the following procedure. The abdomen of a male beagle (14-16 kg) is opened and the stomach is exteriorized. Blood vessels are ligated and cut at two places on the greater curvature to enable a piece of the fundus of the stomach to be cut away from the main stomach to form the pouch. The incision lines are sewn together to enable normal digestion. A stainless steel cannula is inserted into the pouch and the end not in the pouch is exteriorized through a stab wound in the abdominal wall to allow drainage of gastric juice under gravity. Finally, the abdomen is closed by a continuous suture. The dogs are ready for experimental use approximately three weeks after operation. The compounds of the invention are tested in Heidenhain pouch dogs by the following procedure. The dogs are starved for approximately 20 hours prior to the experiment and are then placed in Pavlov stands. A polythene cannula is placed in a leg vein and saline is infused for about one hour. A check is made that there is no basal acid secretion. Histamine (20 micromoles/hour) or pentagastrin (8 micrograms/kg/hour) is continuously infused in place of the saline. A plateau of acid secretion is reached after 11/2 to 2 hours and the test compound is administered intravenously or orally (contained within a hard gelatin capsule). Gastric juice is collected by drainage under gravity into perspex tubes attached to the gastric cannula. Normally samples are collected over fifteen minute periods. The volumes of the samples are measured and aliquots are titrated to pH 7.4 with 0.1N sodium hydroxide. Acid secretion is expressed as the product of the volume and acid concentration.

| SMILES | duration of action | mean peak inhibition of histamine-stimulated gastric acid secretion |
| --- | --- | --- |
| N=C(N)Nc1nc(CSCCNc2ncc(Cc3cccnc3)c(=O)[nH]2)cs1 [Example 1, 2-[2-(2-guanidino-4-thiazolylmethylthio)ethylamino]-5-(3-pyridylmethyl)-4-pyrimidone] | extended duration of action | over 50% |
| Cc1ccc(Cc2cnc(NCCSCc3csc(NC(=N)N)n3)[nH]c2=O)cn1 [Example 3, 2-[2-(2-guanidino-4-thiazolylmethylthio)ethylamino]-5-(6-methyl-3-pyridylmethyl)-4-pyrimidone] | extended duration of action | over 50% |
